Measurements from US20040029865A1, “Bis-arylsulfones” (priority 2002, published 2004).

Key:
Format in all cases: physicochemical
[1] = Dynamic moisture sorption gravimetry (DMSG); conditions: for moisture absorption (Δ-Wt(%) DMSG) relative to other salts: comparison with other salts; for Δ-Wt (%) DMSG: 0-90% RH: moisture sorption weight change
Method: Dynamic moisture sorption gravimetry (DMSG): DMSG isotherms were collected on the variable temperature controlled atmospheric microbalance, CAM. Approximately 10 mg samples were used in the balance, samples were run as received. The humidity was set at ambient conditions on the day analysis began. After the first scan with fast scan rate from ambient RH to 0% RH; the DMSG analysis followed with three more scans: 0% RH to 90% RH, 90% RH to 0% RH, 0% RH to 90% RH. The scan rate was 3% RH/step. The mass was measured every two minutes and an equilibrium window of 5 points within 0.001 mg. The RH was changed to the next value (+/−3% RH) when the mass of the sample was stable to within 1.0 μg. The Visual Basic program dmsgscn2.exe was used to control the data collection and export the information to an Excel spreadsheet.

[2] = Two-week solid-state stability at stressed conditions (high RH / high temperature), assessed by Powder-XRD; conditions: for Stability at high Temp (70° C.) / Stability at high RH (88%): two weeks, Powder-XRD; for Stability at high RH (88%): 88% RH; for physical stability at stressed conditions (high temperature and/or high humidity) relative to other salts: comparison with other salts
Method: X-ray Diffraction (XRD) Analysis: A Scintag X-2 theta/theta scanning diffractometer (Scintag Inc., Cupertino Calif.) was employed for the XRD data acquisition for this study. […] Major instrumental parameters are set as follows: 45 KV voltage, 40 mA current, divergent slit width of 2 mm, detector scatter slit width of 0.5 mm and receiving slit width of 0.3 mm. Each XRD pattern was scanned over the spectral range of 2-40° two-theta angle with a step scan algorithm with a step size of 0.03° two-theta angle/step. The raw XRD data, exported in ASCII format, is then converted to the binary format with Galactic's Grams software (Galactic Industries Corp., Salem N.H.) for data analysis, storage and output.

[3] = Conversion of crystal form II to form I upon stirring in aqueous or hot-ethanol
Excerpt: See results in Table 2 below.

Compound	moisture absorption (Δ-Wt(%) DMSG) relative to other salts [1]	Δ-Wt (%) DMSG: 0-90% RH [1]	Stability at high Temp (70° C.) [2]	Stability at high RH (88%) [2]	physical stability at stressed conditions (high temperature and/or high humidity) relative to other salts [2]	other results
CC(=O)Nc1cc(N2CCCNCC2)ccc1S(=O)(=O)c1cccc(F)c1.Cl [Example 2, N-{5-(1,4-diazepan-1-yl)-2-[(3-fluorophenyl)sulfonyl]phenyl}acetamide Hydrochloride]	lower moisture absorption	0.8%	Stable	Stable	better physical stability	–
CC(=O)Nc1cc(N2CCCNCC2)ccc1S(=O)(=O)c1cccc(F)c1.O=C(O)/C=C/C(=O)O [Example 9, N-{5-(1,4-diazepan-1-yl)-2-[(3-fluorophenyl)sulfonyl]phenyl}acetamide Hemi-fumarate]	–	3.0%	Stable	Unstable**	–	–
N-{5-(1,4-diazepan-1-yl)-2-[(3-fluorophenyl)sulfonyl]phenyl}acetamide Hemi-succinate [Example 7]	–	5.0%	Unstable**	Unstable**	–	–
CC(=O)Nc1cc(N2CCCNCC2)ccc1S(=O)(=O)c1cccc(F)c1.O=C(O)/C=C\C(=O)O [Example 5 (Form II), N-{5-(1,4-diazepan-1-yl)-2-[(3-fluorophenyl)sulfonyl]phenyl}acetamide maleate]	–	–	–	–	–	Δ-Wt (%) DMSG: 0-90% RH ([1]; maleate): 0.3%; Stability at high Temp (70° C.) ([2]; listed as form II, maleate): excellent physical stability; Stability at high Temp (70° C.) ([2]; maleate): Stable; Stability at high RH (88%) ([2]; listed as form II, maleate): excellent physical stability; Stability at high RH (88%) ([2]; maleate): Stable
CC(=O)Nc1cc(N2CCCNCC2)ccc1S(=O)(=O)c1cccc(F)c1.O=C(O)/C=C\C(=O)O [Example 4, N-{5-(1,4-diazepan-1-yl)-2-[(3-fluorophenyl)sulfonyl]phenyl}acetamide Maleate, Crystal Form I]	–	0.7%	Stable	Stable	–	Stability at high Temp (70° C.) ([2]; listed as form I): excellent physical stability; Stability at high RH (88%) ([2]; listed as form I): excellent physical stability; thermodynamic preference between crystal forms [3]: thermodynamically favored relative to form II
CC(=O)Nc1cc(N2CCCNCC2)ccc1S(=O)(=O)c1cccc(F)c1.O=C(O)CC(O)(CC(=O)O)C(=O)O [Example 6, N-{5-(1,4-diazepan-1-yl)-2-[(3-fluorophenyl)sulfonyl]phenyl}acetamide Hemi-citrate]	–	2.5%	Stable	Unstable***	–	–
CC(=O)Nc1cc(N2CCCNCC2)ccc1S(=O)(=O)c1cccc(F)c1.O=C(O)/C=C\C(=O)O [maleate, N-{5-(1,4-diazepan-1-yl)-2-[(3-fluorophenyl)sulfonyl]phenyl}acetamide maleate]	lower moisture absorption	–	–	–	better physical stability	–
N-{5-(1,4-diazepan-1-yl)-2-[(3-fluorophenyl)sulfonyl]phenyl}acetamide Hemi-malate [Example 10]	–	1.5%	Unstable**	Stable	–	–
CC(=O)Nc1cc(N2CCCNCC2)ccc1S(=O)(=O)c1cccc(F)c1.CS(=O)(=O)O [Example 1, N-{5-(1,4-diazepan-1-yl)-2-[(3-fluorophenyl)sulfonyl]phenyl}acetamide Methanesulfonate]	–	Deliquesced	Stable	Deliquesced	–	–
CC(=O)Nc1cc(N2CCCNCC2)ccc1S(=O)(=O)c1cccc(F)c1 [Example 11, N-{5-(1,4-diazepan-1-yl)-2-[(3-fluorophenyl)sulfonyl]phenyl}acetamide Hemi-tartrate]	–	–	Stable	Unstable**	–	–
CC(=O)Nc1cc(N2CCCNCC2)ccc1S(=O)(=O)c1cccc(F)c1.O=C(O)C(F)(F)F [Example 3, N-{5-(1,4-diazepan-1-yl)-2-[(3-fluorophenyl)sulfonyl]phenyl}acetamide Trifluoroacetate]	lower moisture absorption	0.8%	Stable	Stable	better physical stability	–
CC(=O)Nc1cc(N2CCCNCC2)ccc1S(=O)(=O)c1cccc(F)c1.Cc1ccc(S(=O)(=O)O)cc1 [Example 8, N-{5-(1,4-diazepan-1-yl)-2-[(3-fluorophenyl)sulfonyl]phenyl}acetamide Tosylate]	lower moisture absorption	1.9%	Stable	Stable	better physical stability	–
